This note sets out measurements from PubChem BioAssay AID602251 (NMMLSC, 2012).

As a reminder, the EC50 is the concentration at which the effect is half-maximal.

Structures are written as SMILES. Active and inactive are the calls of the source.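 How the source made its calls: active means fitted concentration giving half of the maximal binding block below 66 µM; inactive means the rest.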

The target of one assay is anti-desmoglein 3 scFv antibody binding to human desmoglein 3 (DSG3). The assay is described as follows: inhibitors of anti-DSG3 scFv binding to DSG3, dose response, biochemical, DSG3-coupled beads, scFv-GFP, flow cytometry, Cherry Pick 1 (AID 602251).
Settings: not given
On the technique in general: Flow cytometry measures light scatter and fluorescence of single cells or particles in a stream.
As to `CCC(CC)C(=O)Nc1cccc(S(=O)(=O)c2cccc(NC(=O)C(CC)CC)c2)c1`, the EC50 is 55 µM.

Turning to `Nc1ccc2nc(-c3cccc(-c4nc5ccc(N)cc5[nH]4)c3)[nH]c2c1`, the EC50 is 65.2 µM.

`O=[N+]([O-])c1ccc(N=NNc2ccc([N+](=O)[O-])cc2)cc1`: the EC50 was 58.8 µM.

Take `C=CCn1c(O)c(C2=c3ccccc3=NC2=O)s/c1=N/c1nccs1`: the EC50 was 39.6 µM.

Turning to `COc1ccc2cc(-c3cc(C(=O)OCC(=O)NC4CCS(=O)(=O)C4)c4ccccc4n3)ccc2c1` (configuration not stated), the EC50 was 19.2 µM.

For the molecule `Nc1ccc2nc3c(=O)[nH]c(=S)[nH]c3nc2c1`, the EC50 is 39.1 µM.

As to `Clc1ccc2nc(CSc3nnc(-c4c[nH]c5ccccc45)o3)cn2c1`, the EC50 was 24.8 µM.

Consider `C=CCNC(=O)c1c(N)n(-c2cccc(S(N)(=O)=O)c2)c2nc3ccccc3nc12`, for which the EC50 was 58.5 µM.

Turning to `CCOC(=O)Cn1c(=NC(=O)c2cccs2)sc2cc(C(=O)OC)ccc21`, the EC50 is 26 µM.

With `COc1cc(C(=O)Nc2cccc(-c3nc4cc(C)ccc4o3)c2C)cc(OC)c1OC`, the 50% effective concentration (EC50) was 24.6 µM.

On to `CCOC(=O)Cc1csc(-n2sc3ccccc3c2=O)n1`, for which the EC50 was 15 µM.

In the case of `NC(=O)c1ccsc1NC(=O)COC(=O)c1cc(=O)[nH]c2ccccc12`, the EC50 is 30.2 µM.

`CCN(CC)c1ccc(NC(=O)CCCCC(=O)Nc2ccc(N(CC)CC)cc2)cc1`: the EC50 was 27.2 µM.

For the molecule `COc1cccc2c1NC(C(=O)O)C1CC=CC21` (configuration not stated), the EC50 was 32.1 µM.

As for `COc1ccc(NC(=O)CSc2nc3c([nH]c4ccccc43)c(=O)n2C)c(OC)c1`, the concentration giving a half-maximal response (EC50) is 22.4 µM.

On to `COc1ccc(-n2c(SCC(=O)Nc3nccs3)nnc2-c2ccc(Cl)cc2)cc1`, for which the EC50 was 28.1 µM.

For `CCOc1ccc2c(ccc(/C=C/c3cc(C)c4cccnc4c3O)[n+]2C)c1`, the EC50 was 1.08 µM.

`CCc1nnc(NC(=O)CSc2nncc(=O)n2N)s1`: the EC50 was 55 µM.

The same assay, now with this note: at 66.1 µM (top of the series).
On to `O=C(Nc1cc(Cl)ccc1Cl)c1ccc(OC(=O)c2ccco2)cc1`, for which the “binding response, lower = inhibition” value is “inactive”.

As to `Cc1ccc(-c2nc3sc(C#N)c(N)n3c(=O)c2C#N)cc1`, the “binding response, lower = inhibition” value was “inactive”.

With `COc1ccc(NC(=O)c2ccc3c(c2)S(=O)(=O)c2ccccc2C3=O)cc1`, the “binding response, lower = inhibition” value was “inactive”.

Take `O=C(Nc1cccc([N+](=O)[O-])c1)c1ccc(CSc2ccccc2)cc1`: the “binding response, lower = inhibition” value is “inactive”.

Take `COc1ccc(C(C(=O)NC2CCCCC2)N(CC2CCCO2)C(=O)C2COc3ccccc3O2)cc1OC` (configuration not stated): the “binding response, lower = inhibition” value was “inactive”.

As for `O=C(Nc1ccc(Nc2ccccc2)cc1)c1ccc(Br)cc1`, the “binding response, lower = inhibition” value was “inactive”.

Turning to `Cc1ccc(NC(=O)CSc2ccc(C(N)=O)cc2[N+](=O)[O-])cc1C`, the “binding response, lower = inhibition” value was “inactive”.

In the case of `O=C(c1cc2cc3ccc(Cl)cc3nc2o1)N1CCN(Cc2ccc3c(c2)OCO3)CC1`, the “binding response, lower = inhibition” value is “inactive”.

On to `CCOC(=O)N1CCC(NC(=O)c2cc3c(-c4ccccc4F)nn(C)c3s2)CC1`, for which the “binding response, lower = inhibition” value was “inactive”.

Regarding `CN(C)c1nc(N)ncc1-c1ccc(Oc2ccccc2)cc1`, the “binding response, lower = inhibition” value is “inactive”.

Consider `Cc1cc(=O)oc2c(C)c(OCC(=O)NCc3ccccn3)ccc12`, for which the “binding response, lower = inhibition” value is “inactive”.

As for `Cc1cc(SCC(=O)Nc2ccc3[nH]c(=O)[nH]c3c2)nc2ccccc12`, the “binding response, lower = inhibition” value was “inactive”.

With `CCCCN(C)CCNC(=O)c1cc(-c2cccnc2)nc2ccc(S(=O)(=O)N3CCC(C)CC3)cc12`, the “binding response, lower = inhibition” value was “inactive”.

`CC(=O)Nc1cccc(NC(=O)CSc2ccc(C(F)(F)F)cc2[N+](=O)[O-])c1`: the “binding response, lower = inhibition” value is “inactive”.

Turning to `Cc1ccc2oc(-c3ccc(NC(=O)CC(C)C)cc3)nc2c1`, the “binding response, lower = inhibition” value was “inactive”.

Take `O=C(Nc1ccc(N2CCN(C(=O)c3ccccc3)CC2)cc1)c1cc2ccccc2o1`: the “binding response, lower = inhibition” value is “inactive”.

Regarding `O=C(COC(=O)c1ccc(S(=O)(=O)N2CCCC2)cc1)NCc1ccc(Cl)cc1`, the “binding response, lower = inhibition” value was “inactive”.

`Nc1ncnc2oc(-c3ccco3)c(-c3ccco3)c12`: the “binding response, lower = inhibition” value was “inactive”.

Regarding `CCOc1ccc(-n2nc3ccc(NC(=O)c4ccc5c(c4)OCCO5)cc3n2)cc1`, the “binding response, lower = inhibition” value is “inactive”.

On to `Cc1sc(NC(=O)CSc2nnc3scc(-c4ccccc4)n23)c(C#N)c1C`, for which the “binding response, lower = inhibition” value is “inactive”.

Take `O=C(Nc1ccc2oc(=O)ccc2c1)c1ccc(-c2ccccc2[N+](=O)[O-])o1`: the “binding response, lower = inhibition” value was “inactive”.

As for `O=C(N/N=C1/C(=O)c2cccc3cccc1c23)c1ccc(Cl)cc1`, the “binding response, lower = inhibition” value was “inactive”.

On to `O=C(CSc1ccsc1[N+](=O)[O-])Nc1cc(F)ccc1F`, for which the “binding response, lower = inhibition” value is “inactive”.

As to `Cc1ccc(NC(=O)c2sc(N)nc2-c2ccc([N+](=O)[O-])cc2)cc1C`, the “binding response, lower = inhibition” value is “inactive”.

As for `O=C(Nc1ccc2c(c1)OCO2)C1CCN(c2ccc(S(=O)(=O)N3CCOCC3)cc2)CC1`, the “binding response, lower = inhibition” value is “inactive”.

For `O=C(Nc1nc2cc3c(cc2s1)OCCO3)c1ccc(N2C(=O)CCC2=O)cc1`, the “binding response, lower = inhibition” value was “inactive”.

With `COc1ccc(NC(=O)c2ccc3c(c2)C(=O)N(Cc2cccnc2)C3=O)cc1`, the “binding response, lower = inhibition” value was “inactive”.

`O=C(NCCCN1CCOCC1)c1cc(-c2cccc(Br)c2)nc2ccccc12`: the “binding response, lower = inhibition” value is “inactive”.

`CCOc1ccc(NC(=O)c2ccc(NC(=O)CSc3nc4ccccc4c(=O)[nH]3)cc2)cc1`: the “binding response, lower = inhibition” value was “inactive”.

For `COc1ccc(NC(=O)c2ccc3c(c2)C(=O)N(Cc2ccncc2)C3=O)cc1S(N)(=O)=O`, the “binding response, lower = inhibition” value is “inactive”.

Regarding `O=C1NN(c2cccc(Br)c2)C(=O)/C1=C/c1ccc(-c2cc([N+](=O)[O-])ccc2O)o1`, the “binding response, lower = inhibition” value is “inactive”.

Take `COC(=O)c1cc(/C=C/c2ccccc2)on1`: the “binding response, lower = inhibition” value is “inactive”.

As for `O=C(NC1CCCC1)C(c1ccc(O)cc1)N(CC1CCCO1)C(=O)C1COc2ccccc2O1` (configuration not stated), the “binding response, lower = inhibition” value was “inactive”.

Take `COCCCNC(=O)c1c(N)n(-c2cccc(S(N)(=O)=O)c2)c2nc3ccccc3nc12`: the “binding response, lower = inhibition” value is “inactive”.

Consider `Cc1ccc(O)c(NC(=O)c2ccc3c(c2)C(=O)N(Cc2cccnc2)C3=O)c1`, for which the “binding response, lower = inhibition” value was “inactive”.

`CSc1nc(SCC(=O)O)c2sc3nc(-c4ccccc4)c4c(c3c2n1)CCC4`: the “binding response, lower = inhibition” value is “inactive”.

For the molecule `Cc1ccsc1-c1nc(-c2ccccc2)c(-c2ccccc2)[nH]1`, the “binding response, lower = inhibition” value was “inactive”.

On to `O=C(Nc1ccc(S(=O)(=O)NCc2ccccc2)cc1)C1CCCCC1`, for which the “binding response, lower = inhibition” value was “inactive”.

Regarding `COc1ccc(C(=O)Nc2ccc(NC(=O)c3cnccn3)cn2)cc1`, the “binding response, lower = inhibition” value was “inactive”.

Turning to `COc1ccc(N2CCN(C(=O)c3sc4nc(-c5ccc(F)cc5)cn4c3C)CC2)cc1`, the “binding response, lower = inhibition” value is “inactive”.

For `Cn1c2ccccc2c(=O)c2c(=O)n(Cc3ccco3)c(COc3ccccc3)nc21`, the “binding response, lower = inhibition” value was “inactive”.

For `COc1ccc2c(c1)c(N=NC(N)=S)c(O)n2CC(=O)c1ccccc1`, the “binding response, lower = inhibition” value was “inactive”.

With `Cc1c(OCC(=O)NCc2ccccn2)ccc2c(-c3ccccc3)cc(=O)oc12`, the “binding response, lower = inhibition” value is “inactive”.

On to `COc1cc2sc3ccc(C#Cc4ccccn4)cc3c(=O)c2cc1OC`, for which the “binding response, lower = inhibition” value is “inactive”.

For `COc1ccc(O)c(/C=N/n2c(-c3ccco3)csc2=Nc2cccnc2)c1`, the “binding response, lower = inhibition” value is “inactive”.

Take `CCOc1ccc(N2CSC(=S)N(c3ccc(OCC)cc3)C2)cc1`: the “binding response, lower = inhibition” value was “inactive”.

For `CCOC(=O)C1=C(N)n2c(s/c(=C\c3cccnc3)c2=O)=C(C(=O)OC)C1c1cccnc1` (configuration not stated), the “binding response, lower = inhibition” value is “inactive”.

As to `O=C(Nc1ccc(Nc2ccncc2)cc1)c1ccc(Nc2ccnc3ccc([N+](=O)[O-])cc23)cc1`, the “binding response, lower = inhibition” value is “inactive”.

With `COc1ccccc1CNC(=O)COC(=O)c1ccc(S(=O)(=O)N2CCCC2)cc1`, the “binding response, lower = inhibition” value is “inactive”.

In the case of `COc1ccc(C(=O)Nc2ccc(Oc3ncnc4sc(-c5ccccc5)cc34)cc2)cc1OC`, the “binding response, lower = inhibition” value is “inactive”.

With `Nc1cc(-c2ccc(Br)cc2)nn1S(=O)(=O)c1ccccc1`, the “binding response, lower = inhibition” value is “inactive”.

With `Cc1c(C(=O)Nc2ccc(OCc3ccccc3)cc2)cccc1[N+](=O)[O-]`, the “binding response, lower = inhibition” value is “inactive”.

As to `O=C(NCc1ccccc1)c1ccc(C(=O)NCc2ccccc2)cc1`, the “binding response, lower = inhibition” value was “inactive”.

Regarding `COc1ccc(Cl)cc1NC(=O)CSc1nc(NS(=O)(=O)c2ccc(C)cc2)cc(=O)[nH]1`, the “binding response, lower = inhibition” value is “inactive”.

As for `N#Cc1cn(-c2ccccc2)nc1-c1ccc2c(c1)OCCO2`, the “binding response, lower = inhibition” value is “inactive”.

For the molecule `C=CCSc1nc(N)c(C#N)c(-c2ccccc2)c1C#N`, the “binding response, lower = inhibition” value was “inactive”.

For the molecule `CCOc1ccc(Nc2ncnc3c2cnn3-c2ccccc2)cc1`, the “binding response, lower = inhibition” value was “inactive”.

Take `O=C(COC(=O)Cc1ccc(-c2ccccc2)cc1)NCc1ccc(F)cc1`: the “binding response, lower = inhibition” value was “inactive”.

As for `O=[N+]([O-])c1ccc(NCCNc2ccc([N+](=O)[O-])cc2)cc1`, the “binding response, lower = inhibition” value is “inactive”.

`C=CCSc1nc(N)c(C(=O)Nc2ccccc2)cc1C#N`: the “binding response, lower = inhibition” value was “inactive”.

As for `CCc1nnc(NC(=O)CSc2ncnc3c2oc2ccccc23)s1`, the “binding response, lower = inhibition” value is “inactive”.

With `O=C(COc1cccnc1[N+](=O)[O-])Nc1cc(S(=O)(=O)N2CCCCC2)ccc1Cl`, the “binding response, lower = inhibition” value is “inactive”.

Turning to `COc1ccc(NC(=O)c2ccc3c(c2)C(=O)N(Cc2cccnc2)C3=O)c(OC)c1`, the “binding response, lower = inhibition” value is “inactive”.

For the molecule `COc1ccc(NC(=O)Cn2nnc(C(=O)NCc3ccccc3)c2N)cc1Cl`, the “binding response, lower = inhibition” value was “inactive”.
